How the values were obtained:
Assay type in all cases: cell-based
[1] = test system: A431 cells; assay: In vitro tumor cell proliferation assay (Cell Titer-Glo) in A431 cells; conditions: Homo sapiens, A-431, 72 h, A431 human epidermoid carcinoma overexpressing HER1; 72 hours exposure; read-out: IC50, activities in A431 cell lines
Source text: (§1) The tumor cell proliferation assay used to test the compounds of the present invention involves a readout called Cell Titer-Glow® Luminescent Cell Viability Assay developed by Promega® (Cunningham, BA “A Growing Issue: Cell Proliferation Assays, Modern kits ease quantification of cell growth” The Scientist 2001, 15(13), 26, and Crouch, S P et al., “The use of ATP bioluminescence as a measure of cell proliferation and cytotoxicity” Journal of Immunological Methods 1993, 160, 81-88), that measures inhibition of cell proliferation. Generation of a luminescent signal corresponds to the amount of ATP present, which is directly proportional to the number of metabolically active (proliferating) cells. A431 cells [human epidermoid carcinoma, ATCC # HTB-20, overexpressing HER1 (EGFR, ErbB1)] and N87 [human gastric carcinoma, ATCC # CRL-1555, overexpressing HER2 (ErbB2) and HER1 (EGFR, ErbB1)] were plated at a density of 2.5×10^3 cells/well in 96 well black-clear bottom tissue culture plates in RPMI media with 10% Fetal Bovine Serum and incubated at 37° C. Twenty-four hours later, test compounds are added at a final concentration range from as high 100 μm to as low […] depend on the activities of the tested compounds in serial dilutions at a final DMSO concentration of 0.1%. Cells were incubated for 72 hours at 37° C. in complete growth media after addition of the test compound. After 72 hours of drug exposure, the plates were equilibrated to room temperature for approximately 30 min. Then, using a Promega Cell Titer Glo Luminescent® assay kit, lysis buffer containing 100 microliters of the enzyme luciferase and its substrate, luciferin mixture, was added to each well. The plates were mixed for 2 min on orbital shaker to ensure cell lysis and incubated for 10 min at room temperature to stabilize luminescence signal. The samples were read on VICTOR2 using Luminescence protocol, and analyzed with Analyze5 software to generate IC50 values.

[2] = test system: N87; assay: In vitro tumor cell proliferation assay (Cell Titer-Glo) in N87 cells; conditions: N87 human gastric carcinoma overexpressing HER2 and HER1; 72 hours exposure; read-out: IC50, activities in N87 cell lines
Source text: as §1

[3] = test system: H1975 cells; assay: In vitro tumor cell proliferation assay (Cell Titer-Glo) in H1975 cells; conditions: NCI-H1975; H1975 human NSCLC expressing mutant HER1 (L858R,T790M); 72 hours exposure; read-out: IC50, activities in H 1975 cell lines
Source text: The tumor cell proliferation assay used to test the compounds of the present invention involves a readout called Cell Titer-Glow® Luminescent Cell Viability Assay developed by Promega® (Cunningham, BA “A Growing Issue: Cell Proliferation Assays, Modern kits ease quantification of cell growth” The Scientist 2001, 15(13), 26, and Crouch, S P et al., “The use of ATP bioluminescence as a measure of cell proliferation and cytotoxicity” Journal of Immunological Methods 1993, 160, 81-88), that measures inhibition of cell proliferation. Generation of a luminescent signal corresponds to the amount of ATP present, which is directly proportional to the number of metabolically active (proliferating) cells.
H1975 cells [human non small cell lung carcinoma, ATCC # CRL-5908, expressing mutant HER1 [(EGFR, ErbB1)(L858R,T790M] were plated at a density of 3×10^3 cells/well in 96 well black-clear bottom tissue culture plates in RPMI media with 10% Fetal Bovine Serum and incubated at 37° C. Twenty-four hours later, test compounds are added at a final concentration range from as high 10 uM to as low 64 pM depending on the activities of the tested compounds in serial dilutions at a final DMSO concentration of 0.1%. Cells were incubated for 72 hours at 37° C. in complete growth media after addition of the test compound. After 72 hours of drug exposure, the plates were equilibrated to room temperature for approximately 30 min. Then, using a Promega Cell Titer Glo Luminescent® assay kit, lysis buffer containing 100 microliters of the enzyme luciferase and its substrate, luciferin mixture, was added to each well. The plates were mixed for 2 min on orbital shaker to ensure cell lysis and incubated for 10 min at room temperature to stabilize luminescence signal. The samples were read on VICTOR2 using Luminescence protocol, and analyzed with Analyze5 software to generate IC50 values.

Structure (SMILES) | IC50 [1] | IC50 [2] | IC50 [3]
O=C(/C=C/CN1CCOCC1)N1CCc2c(sc3ncnc(Nc4ccc(OCc5ccccn5)c(Cl)c4)c23)C1 [Example 1, 1-{4-[3-Chloro-4-(pyridin-2-ylmethoxy)-phenylamino]-5,8-dihydro-6H-9-thia-1,3,7 triaza-fluoren-7-yl}-4-morpholin-4-yl-but-2-en-1-one] | < 200 nM | < 200 nM | 200 to 1000 nM
CCN(CC)C/C=C/C(=O)N1CCc2c(sc3ncnc(Nc4ccc(OCc5ccccn5)c(Cl)c4)c23)C1 [Example 2, N-[3-chloro-4-(pyridin-2-ylmethoxy)phenyl]-7-[(2E)-4-(diethylamino)but-2-enoyl]-5,6,7,8-tetrahydropyrido[4′,3′:4,5]thieno[2,3-d]pyrimidin-4-amine] | < 200 nM | < 200 nM | 1000 to 10000 nM
CN(C)C/C=C/C(=O)N1CCc2c(sc3ncnc(Nc4ccc(OCc5ccccn5)c(Cl)c4)c23)C1 [Example 3, N-[3-chloro-4-(pyridin-2-ylmethoxy)phenyl]-7-[(2E)-4-(dimethylamino)but-2-enoyl]-5,6,7,8-tetrahydropyrido[4′,3′:4,5]thieno[2,3-d]pyrimidin-4-amine] | < 200 nM | < 200 nM | 200 to 1000 nM
O=C(/C=C/CN1CCCCC1)N1CCc2c(sc3ncnc(Nc4ccc(OCc5ccccn5)c(Cl)c4)c23)C1 [Example 4, N-[3-chloro-4-(pyridin-2-ylmethoxy)phenyl]-7-[(2E)-4-piperidin-1-ylbut-2-enoyl]-5,6,7,8-tetrahydropyrido[4′,3′:4,5]thieno[2,3-d]pyrimidin-4-amine] | < 200 nM | < 200 nM | 200 to 1000 nM
CN1CCN(C/C=C/C(=O)N2CCc3c(sc4ncnc(Nc5ccc(OCc6ccccn6)c(Cl)c5)c34)C2)CC1 [Example 5, N-[3-chloro-4-(pyridin-2-ylmethoxy)phenyl]-7-[(2E)-4-(4-methylpiperazin-1-yl)but-2-enoyl]-5,6,7,8-tetrahydropyrido[4′,3′:4,5]thieno[2,3-d]pyrimidin-4-amine] | < 200 nM | < 200 nM | 1000 to 10000 nM
O=C(/C=C/CN1CCOCC1)N1CCc2c(sc3ncnc(Nc4ccc(F)c(Cl)c4)c23)C1 [Example 6, N-(3-chloro-4-fluorophenyl)-7-[(2E)-4-morpholin-4-ylbut-2-enoyl]-5,6,7,8-tetrahydropyrido[4′,3′:4,5]thieno[2,3-d]pyrimidin-4-amine] | < 200 nM | < 200 nM | 1000 to 10000 nM
CN(C)C/C=C/C(=O)N1CCc2c(sc3ncnc(Nc4ccc(F)c(Cl)c4)c23)C1 [Example 7, N-(3-chloro-4-fluorophenyl)-7-[(2E)-4-(dimethylamino)but-2-enoyl]-5,6,7,8-tetrahydropyrido[4′,3′:4,5]thieno[2,3-d]pyrimidin-4-amine] | < 200 nM | < 200 nM | 200 to 1000 nM
CN1CCN(C/C=C/C(=O)N2CCc3c(sc4ncnc(Nc5ccc(F)c(Cl)c5)c34)C2)CC1 [Example 8, N-(3-chloro-4-fluorophenyl)-7-[(2E)-4-(4-methylpiperazin-1-yl)but-2-enoyl]-5,6,7,8-tetrahydropyrido[4′,3′:4,5]thieno[2,3-d]pyrimidin-4-amine] | 200 to 1000 nM | < 200 nM | 1000 to 10000 nM
CCN(CC)C/C=C/C(=O)N1CCc2c(sc3ncnc(Nc4ccc(F)c(Cl)c4)c23)C1 [Example 9, N-(3-chloro-4-fluorophenyl)-7-[(2E)-4-(diethylamino)but-2-enoyl]-5,6,7,8-tetrahydropyrido[4′,3′:4,5]thieno[2,3-d]pyrimidin-4-amine] | < 200 nM | < 200 nM | 1000 to 10000 nM
O=C(/C=C/CN1CCOCC1)N1CCc2c(sc3ncnc(Nc4ccc(OCc5cccc(F)c5)c(Cl)c4)c23)C1 [Example 10, N-{3-chloro-4-[(3-fluorobenzyl)oxy]phenyl}-7-[(2E)-4-morpholin-4-ylbut-2-enoyl]-5,6,7,8-tetrahydropyrido[4′,3′:4,5]thieno[2,3-d]pyrimidin-4-amine] | < 200 nM | < 200 nM | 1000 to 10000 nM
C#Cc1cccc(Nc2ncnc3sc4c(c23)CCN(C(=O)/C=C/CN2CCN(C)CC2)C4)c1 [Example 18, N-(3-ethynylphenyl)-7-[(2E)-4-(4-methylpiperazin-1-yl)but-2-enoyl]-5,6,7,8-tetrahydropyrido [4′,3′:4,5]thieno[2,3-d]pyrimidin-4-amine] | < 200 nM | < 200 nM | 
O=C(/C=C/Cn1ccnc1)N1CCc2c(sc3ncnc(Nc4ccc(F)c(Cl)c4)c23)C1 [Example 34, N-(3-chloro-4-fluorophenyl)-7-[(2E)-4-(1H-imidazol-1-yl)but-2-enoyl]-5,6,7,8-tetrahydropyrido [4′,3′:4,5]thieno[2,3-d]pyrimidin-4-amine] | 1000 to 10000 nM |  | 1000 to 10000 nM
CC(C)N(C)C/C=C/C(=O)N1CCc2c(sc3ncnc(Nc4ccc(F)c(Cl)c4)c23)C1 [Example 36, N-(3-chloro-4-fluorophenyl)-7-{(2E)-4-[isopropyl(methyl)amino]but-2-enoyl}-5,6,7,8-tetrahydropyrido[4′,3′:4,5]thieno[2,3-d]pyrimidin-4-amine] |  | < 200 nM | < 200 nM
CN(C/C=C/C(=O)N1CCc2c(sc3ncnc(Nc4ccc(F)c(Cl)c4)c23)C1)C(C)(C)C [Example 55, 7-{(2E)-4-[tert-butyl(methyl)amino]but-2-enoyl}-N-(3-chloro-4-fluorophenyl)-5,6,7,8-tetrahydropyrido [4′,3′:4,5]thieno[2,3-d]pyrimidin-4-amine] |  | < 200 nM | 200 to 1000 nM
O=C(/C=C/CN1CCOCC1)N1CCc2c(sc3ncnc(Nc4ccc5c(ccn5Cc5ccccn5)c4)c23)C1 [Example 120, 7-[(2E)-4-morpholin-4-ylbut-2-enoyl]-N-[1-(pyridin-2-ylmethyl)-1H-indol-5-yl]-5,6,7,8-tetrahydropyrido [4′,3′:4,5]thieno[2,3-d]pyrimidin-4-amine] | 200 to 1000 nM | < 200 nM | 
CN(C/C=C/C(=O)N1CCc2c(sc3ncnc(Nc4ccc5c(ccn5Cc5ccccc5)c4)c23)C1)C(C)(C)C [Example 131, N-(1-benzyl-1H-indol-5-yl)-7-{(2E)-4-[tert-butyl(methyl)amino]but-2-enoyl}-5,6,7,8-tetrahydropyrido [4′,3′:4,5]thieno[2,3-d]pyrimidin-4-amine] |  | < 200 nM | 
O=C(C#CCN1CCOCC1)N1CCc2c(sc3ncnc(Nc4ccc(F)c(Cl)c4)c23)C1 [Example 137, N-(3-chloro-4-fluorophenyl)-7-(4-morpholin-4-ylbut-2-ynoyl)-5,6,7,8-tetrahydropyrido [4′,3′:4,5]thieno[2,3-d]pyrimidin-4-amine] | 1000 to 10000 nM | < 200 nM | 
C#Cc1cccc(Nc2ncnc3sc4c(c23)CCN(C(=O)C#CCN2CCOCC2)C4)c1 [Example 138, N-(3-ethynylphenyl)-7-(4-morpholin-4-ylbut-2-ynoyl)-5,6,7,8-tetrahydropyrido [4′,3′:4,5]thieno[2,3-d]pyrimidin-4-amine] | 200 to 1000 nM | < 200 nM | 
CC1CCCCN1C/C=C/C(=O)N1CCc2c(sc3ncnc(Nc4ccc(Cl)c(Cl)c4)c23)C1 (stereo not shown) [Example 210, N-(3,4-dichlorophenyl)-7-[(2E)-4-(2-methylpiperidin-1-yl)but-2-enoyl]-5,6,7,8-tetrahydropyrido [4′,3′:4,5]thieno[2,3-d]pyrimidin-4-amine] |  | < 200 nM | 

Source: US8501755B2, “Tetrahydropyridothienopyrimidine compounds and methods of use thereof” (Bayer Intellectual Property GmbH, priority 2006, dated 2013)
